Measured values as given in patent US20110236359A1 (priority 2007, published 2011).

Assays:
[1] = system: Pediococcus acidilactici MM33; assay: Antibiotic MIC plates (resistance profile); type: cell-based; conditions: Pediococcus acidilactici, MM33
Source text: (§1) The protocol was adapted from Delgado et al. (2005). Minimum Inhibitory Concentration (MIC) Plate (# GPN3F) and Anaerobe MIC Plate (# AN02B) were used to determine the antibiotic sensitivity and resistance profile of MM19 and MM33 according to the instructions of the manufacturer (Trek Diagnostic Systems; Nova Century, Burlington, ON, Canada).
(§2) Lactococcus lactis subsp. lactis MM19, Pediococcus acidilactici MM33 and Lactobacillus rhamnosus GG (ATCC 53103) from frozen glycerol stock were first inoculated in Lactobacilli MRS and incubated at 37° C. for 18 h. 100 μl of this culture were further incubated under the same conditions. This second culture was then inoculated on a MRS agar plate and incubated at 37° C. for 48 h under anaerobic conditions using GasPak Plus system (BD BBL, Sparks, Md., USA).

[2] = system: Lactobacillus rhamnosus GG (ATCC 53103); assay: Antibiotic MIC plates (resistance profile); type: cell-based; conditions: Lacticaseibacillus rhamnosus, ATCC53103
Source text: as §1, §2

[3] = system: Lactococcus lactis subsp. lactis MM19; assay: Antibiotic MIC plates (resistance profile); type: cell-based; conditions: Lactococcus lactis
Source text: as §1, §2

[4] = system: vancomycin-resistant Enterococcus faecium (VRE) clinical isolate; assay: Agar well-diffusion assay against VRE clinical isolate; type: cell-based; conditions: all concentrations evaluated between 0 to 800 μg/ml; data not shown
Procedure: A clinical isolate of vancomycin-resistant Enterococcus faecium (VRE) was provided by the Centre Hospitalier de l'Université de Montréal microbiology laboratory (CHUM; Montreal, QC, Canada). […] The E. faecium strain was maintained in brain-heart infusion (BHI; Difco) for E. faecium containing 10% glycerol (w/v).
An agar well-diffusion assay was performed to verify the antimicrobial capacity of the neutralized cell-free supernatant (CFS) against a VRE clinical isolate. CFS was obtained as described before. A volume of 30 ml of cooled (45° C.) sterile BHI agar, containing 0.75% agar, was inoculated with 10^7 colony-forming units (CFU)/ml of VRE, poured into a […] standard Petri dishes and allowed to solidify for 30 minutes at room temperature. Wells of 6 mm in diameter were cut-out and […] of antimicrobial agent were placed into each well. All plates were then placed at 4° C. for 30 minutes, incubated at 37° C. for 24 h and examined for inhibition zones. Inhibition was scored positive if the width of the clearing zone around the well was 0.5 mm. Antibiotics were also evaluated with this method to ascertain the resistance of the VRE strain. Vancomycin and clindamycin (Sigma-Aldrich, Oakville, ON, Canada) were used in concentrations ranging from 0 to 800 μg/ml. […]

[5] = system: L. monocytogenes HPB 2812 serotype ½a; assay: Inhibitory activity of purified pediocin on growth in broth; type: cell-based, Listeria monocytogenes; conditions: for Viable counts: from 9.14
Procedure: Different amounts of purified bacteriocin (0 to 800 AU/ml) were added to cultures of L. monocytogenes HPB 2812 serotype ½a in early exponential phase (grown for 6 h) and incubated at 37° C. Bacterial growth was monitored by measuring the bacterial population in a 1 ml sample taken every 2 h of incubation. These samples were serially diluted ten-fold in peptone water (0.1% w/v), pour-plated in BHI agar and then incubated at 37° C. for 24 h. Colonies were counted using Darkfield Quebec Colony Counter (American Optical, Scientific instrument division, Keene, Ohio, USA).

Compound | MIC [1] | MIC [2] | MIC [3] | Sensitivity of the VRE clinical isolate (in words) [4] | Decrease in viable CFU ml^−1 ([5]; at least 200 AU ml^−1 added into the culture medium) | Viable counts ([5]; two hours after addition of 100 AU ml^−1) | Viable counts ([5]; two hours after addition of 200 AU ml^−1) | Viable counts ([5]; two hours after addition of 400 AU ml^−1) | Viable counts ([5]; two hours after addition of 800 AU ml^−1)
CN[C@H](CC(C)C)C(=O)N[C@H]1C(=O)N[C@@H](CC(N)=O)C(=O)N[C@H]2C(=O)N[C@H]3C(=O)N[C@H](C(=O)N[C@H](C(=O)O)c4cc(O)cc(O)c4-c4cc3ccc4O)[C@H](O)c3ccc(c(Cl)c3)Oc3cc2cc(c3O[C@@H]2O[C@H](CO)[C@@H](O)[C@H](O)[C@H]2O[C@H]2C[C@](C)(N)[C@H](O)[C@H](C)O2)Oc2ccc(cc2Cl)[C@H]1O [VAN, Vancomycin] | > 128 µg/mL | > 128 µg/mL | < 1 µg/mL | resistant |  |  |  |  | 
pediocin (KYYGNGVTCGKHSCSVDWGKATTCIINNGAMAWATGGHQGNHKC; Pediococcus acidilactici MM33) |  |  |  |  | more than 99.9% | 8.7 log CFU ml^−1 | 6.0 log CFU ml^−1 | 4.36 log CFU ml^−1 | 2.81 log CFU ml^−1
